According to patent US8138220B2, “[2-(6-fluoro-1H-indol-3-ylsulfanyl)benzyl]methyl amine for the treatment of affective disorders” (H. Lundbeck A/S, priority 2006, dated 2012):
pKi: −log10 of the molar value. Values joined by “and” are separate entries in the source; they are usually repeats but may differ in a detail not shown here. Equal entries are not always repeated.

Columns and labels:
α1A receptor = molecular target: T1, α1A receptor (Homo sapiens, UniProt P35348); test: α1A receptor affinity, [3H]-Prazosin binding to membranes; conditions: Cheng Prusoff
T1 construct: expressed in transfected cells
T1 sequence (P35348 1-466): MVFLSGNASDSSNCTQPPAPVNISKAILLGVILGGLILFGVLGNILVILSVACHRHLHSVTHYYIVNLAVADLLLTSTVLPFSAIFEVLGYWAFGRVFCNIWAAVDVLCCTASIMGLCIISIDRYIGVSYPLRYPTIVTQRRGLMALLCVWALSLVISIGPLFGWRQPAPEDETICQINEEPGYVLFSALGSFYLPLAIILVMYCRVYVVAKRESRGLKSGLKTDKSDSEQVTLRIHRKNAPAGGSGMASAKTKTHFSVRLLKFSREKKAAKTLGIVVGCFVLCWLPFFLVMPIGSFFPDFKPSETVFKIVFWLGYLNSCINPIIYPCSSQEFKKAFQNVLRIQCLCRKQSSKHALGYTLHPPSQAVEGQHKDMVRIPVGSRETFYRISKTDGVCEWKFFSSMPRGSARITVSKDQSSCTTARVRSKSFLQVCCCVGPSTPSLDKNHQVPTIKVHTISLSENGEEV
Method: On the day of the experiments membranes (see below for description of membrane preparation) are thawed and homogenized in buffer using an ultra turrax and diluted to the desired concentration (5 μg/well˜5 μg/900 μl, store on ice until use).
The experiment is initiated by mixing of 50 μl test compound, 50 μl [^3H]-Prazosin and 900 μl membranes, and the mixture is incubated for 20 minutes at 25° C. Non-specific binding is determined in the presence of 10 μM WB-4101 and the total binding is determined in the presence of buffer. After the incubation, bound ligand is separated from unbound by filtration through Unifilter GF/B, presoaked in 0.1% PEI for 30 minutes, using a Tomtec Cell Harvester program (D4.2 . . . 4) 96 well. Filters are washed 3 times with 1 ml ice-cold buffer, dried at 50° C. and 35 μl scintillation liquid/well is added to the filters. Bound radioactivity is counted in a Wallac OY 1450 MicroBeta. The affinity (Ki 10 nM) is calculated from Y=100/(1+10^(X-logIC50^)) where Y denotes % binding and X denotes the concentration of compound. […] Ki was calculated from the Cheng Prusoff equation Ki=(IC50/(1+([L]/Kd))
Cells were grown to 95% confluence, washed twice with buffer (50 mM Tris pH 7.7, 125 mM NaCl) and detached by scraping in a volume of 10 ml buffer/160 cm^2. […] Protein concentration was measured with BCA™ (Pierce #23223+23224).

5-HT2A receptors = 5-HT2A receptors (Homo sapiens, UniProt P28223); test: 5-HT2A receptor affinity (MDL Pharmaservices catalogue number 271650); assay type: binding; set-up: purchased MDL Pharmaservices 271650; conditions: Cheng Prusoff from IC50, 5 concentrations
5-HT2A receptors, sequence (P28223 whole entry): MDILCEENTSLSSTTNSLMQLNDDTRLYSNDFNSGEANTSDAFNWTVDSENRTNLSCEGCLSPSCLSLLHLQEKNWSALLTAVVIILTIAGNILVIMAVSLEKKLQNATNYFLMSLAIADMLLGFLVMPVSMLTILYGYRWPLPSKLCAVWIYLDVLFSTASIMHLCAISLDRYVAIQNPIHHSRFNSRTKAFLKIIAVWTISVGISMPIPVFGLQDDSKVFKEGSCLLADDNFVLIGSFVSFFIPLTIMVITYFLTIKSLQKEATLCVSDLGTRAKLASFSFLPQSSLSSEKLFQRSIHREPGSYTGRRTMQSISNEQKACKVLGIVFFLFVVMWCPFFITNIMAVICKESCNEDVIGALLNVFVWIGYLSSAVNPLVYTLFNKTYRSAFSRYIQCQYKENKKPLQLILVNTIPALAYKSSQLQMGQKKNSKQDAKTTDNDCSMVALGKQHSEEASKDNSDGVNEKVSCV
Method: 5 concentration of compound (1, 10, 30, 100, 1000 nM) were used to calculate the IC50 value. Ki was calculated from the Cheng Prusoff equation Ki=(IC50/(1+([L]/Kd)) Affinity was determined at MDL Pharmaservices catalogue number 271650.

[1] = test system: telemeterised Beagle dogs; test: Effect on blood pressure in telemeterised Beagle dogs; assay type: in vivo, dog
Method: The cardiovascular effects of compounds of the present invention were investigated in telemeterised Beagle dogs in the doses 0.25, 0.50 and 1.0 mg/kg given by gavage. Amount of compound is calculated as the free base. Six dogs were used in the experiment, three males and three females.

rat 5-HT2A receptor = rat 5-HT2A receptor (Rattus norvegicus, UniProt P14842); test: Ki for rat versus human 5-HT2A receptor; assay type: binding
rat 5-HT2A receptor, sequence (P14842 whole entry): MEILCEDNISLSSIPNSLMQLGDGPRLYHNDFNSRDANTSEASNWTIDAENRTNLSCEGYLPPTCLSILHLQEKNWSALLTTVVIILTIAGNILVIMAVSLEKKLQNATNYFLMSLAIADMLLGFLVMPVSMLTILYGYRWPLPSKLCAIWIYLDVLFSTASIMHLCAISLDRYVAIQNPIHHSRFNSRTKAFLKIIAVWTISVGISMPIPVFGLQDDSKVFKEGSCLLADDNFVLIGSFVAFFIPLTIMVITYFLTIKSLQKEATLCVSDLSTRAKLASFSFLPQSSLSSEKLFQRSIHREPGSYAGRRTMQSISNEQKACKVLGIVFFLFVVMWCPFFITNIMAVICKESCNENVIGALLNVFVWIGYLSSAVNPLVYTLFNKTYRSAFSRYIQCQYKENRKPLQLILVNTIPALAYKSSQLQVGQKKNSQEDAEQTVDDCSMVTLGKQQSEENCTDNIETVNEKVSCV

[2] = molecular target: T2, human alpha1A-7 receptors (Homo sapiens, UniProt P35348); test: α1A functional assay, adrenaline evoked Ca2+ release in CHO cells (FLIPR); assay type: cell-based; conditions: CHO cells expressing human alpha1A-7 receptors
T2 sequence (P35348 1-423 limits assumed): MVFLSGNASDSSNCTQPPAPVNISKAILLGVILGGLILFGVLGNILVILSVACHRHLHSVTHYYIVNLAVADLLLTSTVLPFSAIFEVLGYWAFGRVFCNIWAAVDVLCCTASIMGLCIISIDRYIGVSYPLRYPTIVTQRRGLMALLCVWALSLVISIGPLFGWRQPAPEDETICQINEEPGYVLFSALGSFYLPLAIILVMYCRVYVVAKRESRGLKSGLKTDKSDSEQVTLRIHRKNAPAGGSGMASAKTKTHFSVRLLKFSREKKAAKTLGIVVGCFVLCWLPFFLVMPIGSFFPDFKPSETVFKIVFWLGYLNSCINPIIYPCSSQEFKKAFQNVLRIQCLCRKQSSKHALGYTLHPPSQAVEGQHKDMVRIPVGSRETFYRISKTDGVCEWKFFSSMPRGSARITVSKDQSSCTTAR
Method: All cells were cultured in DMEM medium supplemented with 10% BCS, 4 mM L-glutamine (or 2 mM in the case of COS-7), and 100 units/ml penicillin plus 100 μg/ml streptomycin, at 37° C., in 5% CO2.
Twenty-four hours prior to assays, CHO cells expressing the human alpha1A-7 receptors were seeded into 384-well black wall microtiter plates coated with poly-D-lysine. Culture medium was aspirated and cells were dye-loaded with 1.5 μM Fluo-4 in assay buffer composed of Hank's Balanced Salt Solution (138 mM NaCl, 5 mM KCl, 1.3 mM CaCl2, 0.5 mM MgCl2, 0.4 mM MgSO4, 0.3 mM KH2PO4, 0.3 mM Na2HPO4, 5.6 mM glucose) plus 20 mM HEPES pH 7.4, 0.05% BSA and 2.5 mM probenicid (50 μl/well) for 1 hour in 5% CO2 at 37° C. After excess dye was discarded, cells were washed in assay buffer and layered with a final volume equal to 45 μl/well (or 30 ul/well for antagonist assay). […] Laser excitation energy was adjusted so that basal fluorescence readings were approximately 8,000 relative fluorescent units (RFU). Cells were then stimulated at room temperature with agonists diluted in assay buffer (15 μl), and RFU were measured at 1.5 second intervals over a period of 2.5 min. Maximum change in fluorescence was calculated for each well. Concentration-response curves derived from the maximum change in fluorescence were analyzed by nonlinear regression (Hill equation). […]

CNCc1ccccc1Sc1c[nH]c2cc(F)ccc12 [compounds of the present invention, [2-(6-fluoro-1H-indol-3-ylsulfanyl)benzyl]methyl amine] was tested, and the pKi (α1A receptor) was 7.85 and 8.00, the pKi (5-HT2A receptors) was 7.85 and the “Systolic arterial blood pressure (Change from baseline (mean ± SD)) (10-380 min)” value ([1]; 0.25 mg/kg by gavage) was −4.26 ± 5.98. For the same molecule, the “Systolic left ventricular pressure (Change from baseline (mean ± SD)) Post-dose period I (10-380 min)” value ([1]; 0.25 mg/kg by gavage) was −3.82 ± 3.42^♀, the “Systolic arterial blood pressure (Change from baseline (mean ± SD)) (10-380 min)” value ([1]; 0.50 mg/kg by gavage) was −9.77 ± 5.39 and the “Systolic left ventricular pressure (Change from baseline (mean ± SD)) Post-dose period I (10-380 min)” value ([1]; 0.50 mg/kg by gavage) was −11.13 ± 4.05^♂♀. For the same molecule, the “Systolic arterial blood pressure (Change from baseline (mean ± SD)) (10-380 min)” value ([1]; 1.00 mg/kg by gavage) was −6.30 ± 6.63, the “Systolic left ventricular pressure (Change from baseline (mean ± SD)) Post-dose period I (10-380 min)” value ([1]; 1.00 mg/kg by gavage) was −3.08 ± 5.37^♂,♀ and the “Ki rat 5-HT2A receptor higher than human 5-HT2A receptor” value (rat 5-HT2A receptor) was roughly 40 fold. It also gave a Kb [2] of 64 nM.
